Test results taken from patent publication US10011615B2, “Heterobicyclo-substituted [1,2,4]triazolo[1,5-c]quinazolin-5-amine compounds with A2A anatagonist properties” (Merck Sharp & Dohme Corp., priority 2012, dated 2018).
pEC50: −log10 of the molar value.

The compounds below were run against T1, human A2a receptor (Homo sapiens, UniProt P29274) (assay: A2a receptor competition binding assay using Scintillation Proximity technology). Conditions: membranes from HEK293 cells expressing human A2a receptor; 0.5 nM tritiated radioligand; SPA beads; 1 h room temperature.
T1 construct: purchased Perkin-Elmer RBHA2AM400UA; host or cells: HEK293 cell membranes
T1 sequence (P29274 whole entry): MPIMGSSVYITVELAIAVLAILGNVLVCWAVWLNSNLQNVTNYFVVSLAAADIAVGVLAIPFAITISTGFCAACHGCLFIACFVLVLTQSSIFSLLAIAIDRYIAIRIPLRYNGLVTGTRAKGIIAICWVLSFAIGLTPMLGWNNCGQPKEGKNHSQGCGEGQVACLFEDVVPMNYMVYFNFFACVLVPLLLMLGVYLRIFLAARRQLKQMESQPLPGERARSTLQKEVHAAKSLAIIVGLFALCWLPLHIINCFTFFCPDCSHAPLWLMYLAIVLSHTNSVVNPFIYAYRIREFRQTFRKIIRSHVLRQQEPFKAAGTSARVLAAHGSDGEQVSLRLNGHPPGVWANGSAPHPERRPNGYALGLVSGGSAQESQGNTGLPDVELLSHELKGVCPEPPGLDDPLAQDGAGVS
Procedure: Binding affinities of compounds of the invention for the human A2a receptor were determined in a competition binding assay using Scintillation Proximity technology. Thus, 0.3 μg of membranes from HEK293 cells expressing the human A2a receptor were incubated with a compound of the invention at concentrations ranging from 3000 nM to 0.15 nM in a reaction mixture containing also 0.5 nM of a tritiated form of 5-amino-7-[2-phenethyl]-2-(furan-2-yl)-7H-pyrazolo[4,3-e][1,2,4]triazolo[1,5-c]pyrimidine (the tritiated compound) and 100 μg of wheat germ agglutin-coated yttrium silicate SPA beads for one hour at room temperature with agitation. The beads were then allowed to settle to the bottom of the wells for 1 hr, after which the membrane-associated radioactivity was determined by scintillation counting in a TopCount microplate reader. Ki values were determined using the Cheng-Prusoff equation.
Summary of Materials and Methods Used in A2a Activity Determination:
HEK293 cells expressing the human, rat, dog or monkey adenosine 2a receptor (Purchased from Perkin-Elmer # RBHA2AM400UA).
The Tritiated compound was prepared in-house by MRL Radiochemistry according to published methods.
Wheat germ agglutinin-coated yttrium silicate SPA beads (GE Healthcare#RPNQ0023). Dilute to 25 mg/ml in assay buffer.
Assay Buffer was prepared in house: Dulbecco's calcium and magnesium free phosphate buffered saline+10 mM MgCl2
Adenosine deaminase from calf intestine, 10 mg/2 ml (Roche) 10 102 105 001).
A2a antagonist standard (9-chloro-1-(2-furanyl)-[1,2,4]triazolo1,5-c]quinazolin-5-amine from Tocris Bioscience)
Make eight 1:3 serial dilutions in 100% DMSO from a 3 mM compound stock
Transfer 50 nl of compound into a 384-well OptiPlate (Perkin Elmer).
Typically, final concentrations of compound used in the assay ranged from 3000 nM to 0.152 nM.
Dilute a solution of the Tritiated compound to 1.25 nM in assay buffer. This is a 2.5× solution. The final concentration in the assay is 0.5 nM. Calculate the concentration by counting two 5 μl aliquots.
Use 0.25 ug of membrane/well. Dilute membranes to 9.7 μg/ml in assay buffer. Treat with 20 ug/ml adenosine deaminase (ADA) for 15 minutes at room temperature to degrade endogenous adenosine.
Use 100 μg/well wheat germ agglutinin-coated yttrium silicate SPA beads.
Mix ADA-treated membranes and SPA beads together for 30 min prior to assay.
To the Perkin-Elmer Optiplate-384 containing the compound titration add 20 μl of 2.5× solution of the Tritiated compound and 30 μl of the membrane-bead mixture. Incubate for one hour at room temperature with agitation.
Include total binding (assay buffer+1% DMSO) and non-specific binding (CGS15943, 1 μM) wells.
Allow the beads to settle for one hour.
A curve fitting program (i.e., Prism, Activity Base, Chemcart) is used to determine the EC50. The Ki value is calculated using the Cheng-Prusoff equation: K i=EC50/(1+(radioligand concentration/Kd)).

pEC50	SMILES
8.27	COc1cccc2c1nc(N)n1nc(CCN3Cc4cccnc4C3)nc21 [Ex-49, 2-(2-(5H-pyrrolo[3,4-b]pyridin-6(7H)-yl)ethyl)-7-methoxy-[1,2,4]triazolo[1,5-c]quinazolin-5-amine]
7.54	COc1cccc2c1nc(N)n1nc(C[C@@H](C)N3CCc4oc(C)nc4C3)nc21 [Ex-214, (R)-7-methoxy-2-(2-(2-methyl-6,7-dihydrooxazolo[4,5-c]pyridin-5(4H)-yl)propyl)-[1,2,4]triazolo[1,5-c]quinazolin-5-amine]
8.28	COc1cccc2c1nc(N)n1nc(CCN3Cc4ccc(N5C[C@@H](C)O[C@@H](C)C5)nc4C3)nc21 [Ex-69]
7.44	COc1cccc2c1nc(N)n1nc(CC(=O)N3Cc4cccnc4C3)nc21 [Ex-77, 2-(5-amino-7-methoxy[1,2,4]triazolo[1,5-c]quinazolin-2-yl)-1-(5,7-dihydro-6H-pyrrolo[3,4-b]pyridin-6-yl)ethanone]
8.33	COc1cccc2c1nc(N)n1nc(CCN3Cc4ccc(Cl)nc4C3)nc21 [Ex-5, 2-(2-(2-chloro-5H-pyrrolo[3,4-b]pyridin-6(7H)-yl)ethyl)-7-methoxy-[1,2,4]triazolo[1,5-c]quinazolin-5-amine]
7.71	COc1cccc2c1nc(N)n1nc(C[C@H](C)N3Cc4cccnc4C3)nc21 [Ex-106]
8.08	COc1cccc2c1nc(N)n1nc(C[C@@H](C(F)F)N3Cc4cccnc4C3)nc21 [Ex-103]
7.51	Nc1nc2c(F)cc(F)cc2c2nc(CCN3Cc4cccnc4C3)nn12 [Ex-100]
6.46	CCc1nnc2n1CCN(Cc1nc3c4cccc(OC)c4nc(N)n3n1)C2 [Ex-142, 2-((3-ethyl-5,6-dihydro-[1,2,4]triazolo[4,3-a]pyrazin-7(8H)-yl)methyl)-7-methoxy-[1,2,4]triazolo[1,5-c]quinazolin-5-amine]
8.24	COc1cccc2c1nc(N)n1nc(CCCN3Cc4ccc(C(F)(F)F)cc4C3)nc21 [Ex-230, 7-methoxy-2-(3-(5-(trifluoromethyl)isoindolin-2-yl)propyl)-[1,2,4]triazolo[1,5-c]quinazolin-5-amine]
8.77	COc1cccc2c1nc(N)n1nc(CCN3CCc4scnc4C3)nc21 [Ex-57, 2-(2-(6,7-dihydrothiazolo[4,5-c]pyridin-5(4H)-yl)ethyl)-7-methoxy-[1,2,4]triazolo[1,5-c]quinazolin-5-amine]
7.83	COc1cccc2c1nc(N)n1nc(CCCN3Cc4ccc(F)cc4C3)nc21 [Ex-229]
6.70	COCc1cccc2c1nc(N)n1nc(CN3CCc4cccnc4C3)nc21 [Ex-199]
7.88	COc1cccc2c1nc(N)n1nc(CCN3Cc4cnc(C(F)(F)F)nc4C3)nc21 [Ex-18, 7-methoxy-2-(2-(2-(trifluoromethyl)-5H-pyrrolo[3,4-d]pyrimidin-6(7H)-yl)ethyl)-[1,2,4]triazolo[1,5-c]quinazolin-5-amine]
8.60	COc1cccc2c1nc(N)n1nc(CCN3CCCn4nc(C#N)cc4C3)nc21 [Ex-61, 5-(2-(5-amino-7-methoxy-[1,2,4]triazolo[1,5-c]quinazolin-2-yl)ethyl)-5,6,7,8-tetrahydro-4H-pyrazolo[1,5-a][1,4]diazepine-2-carbonitrile]
8.06	COc1cccc2c1nc(N)n1nc(CCN3CCCc4[nH]nc(C5CC5)c43)nc21 [Ex-52, 2-(2-(3-cyc1opropyl-6,7-dihydro-1H-pyrazolo[4,3-b]pyridin-4(5H)-yl)ethyl)-7-methoxy[1,2,4]triazolo[1,5-c]quinazolin-5-amine]
8.22	COc1cccc2c1nc(N)n1nc(CN3CCCc4ccc(C)nc43)nc21 [Ex-156]
7.56	COc1cccc2c1nc(N)n1nc(CN3CCCc4ncccc43)nc21 [Ex-133, 2-((3,4-dihydro-1,5-naphthyridin-1(2H)-yl)methyl)-7-methoxy-[1,2,4]triazolo[1,5-c]quinazolin-5-amine]

pEC50	SMILES
6.56	N#Cc1cccc2c1nc(N)n1nc(CN3CCc4cccnc4C3)nc21 [Ex-196, 5-amino-2-((5,6-dihydro-1,7-naphthyridin-7(8H)-yl)methyl)[1,2,4]triazolo[1,5-c]quinazoline-7-carbonitrile]
8.54	COc1cccc2c1nc(N)n1nc(CCN3Cc4cn[nH]c4C3)nc21 [Ex-51, 7-methoxy-2-(2-(pyrrolo[3,4-c]pyrazol-5(1H,4H,6H)--yl)ethyl)-[1,2,4]triazolo[1,5-c]quinazolin-5-amine]
8.54	COc1cccc2c1nc(N)n1nc(CN3CCc4ccc(-c5cn(C)nc5C(F)(F)F)cc4C3)nc21 [Ex-184, 7-methoxy-2-((7-(1-methyl-3-(trifluoromethyl)-1H-pyrazol-4-yl)-3,4-dihydroisoquinolin-2(1H)-yl)methyl)-[1,2,4]triazolo[1,5-c]quinazolin-5-amine]
8.89	COc1cccc2c1nc(N)n1nc(CCN3CCc4nc(C5CC5)oc4C3)nc21 [Ex-31, 2-(2-(2-cyclopropyl-6,7-dihydrooxazolo[5,4-c]pyridin-5(4H)-yl)ethyl)-7-methoxy[1,2,4]triazolo[1,5-c]quinazolin-5-amine]
8.37	COc1cccc2c1nc(N)n1nc(CC(C)N3Cc4ccc(F)cc4C3)nc21 (centres unmarked) [Ex-114]
8.57	COc1cccc2c1nc(N)n1nc(CN3Cc4ccccc4C(C)(C)C3)nc21 [Ex-163, 2-((4,4-dimethyl-3,4-dihydroisoquinolin-2(1H)-yl)methyl)-7-methoxy-[1,2,4]triazolo[1,5-c]quinazolin-5-amine]
7.56	COc1cccc2c1nc(N)n1nc(CN3CCc4nccnc4C3)nc21 [Ex-150, 2-((7,8-dihydropyrido[4,3-b]pyrazin-6(5H)-yl)methyl)-7-methoxy-[1,2,4]triazolo[1,5-c]quinazolin-5-amine]
8.37	COc1cccc2c1nc(N)n1nc(CN3CCc4ccc(-c5ccc(F)c(F)c5)cc4C3)nc21 [Ex-168]
8.74	COc1cccc2c1nc(N)n1nc(CCN3CCc4nccnc4C3)nc21 [Ex-55, 2-(2-(7,8-dihydropyrido[4,3-b]pyrazin-6(5H)-yl)ethyl)-7-methoxy-[1,2,4]triazolo[1,5-c]quinazolin-5-amine]
7.05	CCOc1cccc2c1nc(N)n1nc(CN3Cc4cccnc4C3)nc21 [Ex-203, 2-((5H-pyrrolo[3,4-b]pyridin-6(7H)-yl)methyl)-7-ethoxy-[1,2,4]triazolo[1,5-c]quinazolin-5-amine]
8.23	COc1cccc2c1nc(N)n1nc(CCN3CCc4c(Br)ccnc4C3)nc21 [Ex-6, 2-(2-(4-bromo-5,6-dihydro-1,7-naplithyridin-7(8H)-yl)ethyl)-7-methoxy-[1,2,4]triazolo[1,5-c]quinazolin-5-amine]
8.40	COc1cccc2c1nc(N)n1nc(CCN3CCn4c(nnc4SC)C3)nc21 [Ex-1, 7-methoxy-2-(2-(3-(methylthio)-5,6-dihydro-[1,2,4]triazolo[4,3-a]pyrazin-7(8H)-yl)ethyl)-[1,2,4]triazolo[1,5-c]quinazolin-5-amine]
6.83	COc1cccc2c1nc(N)n1nc(CN3CCn4c(nnc4OC)C3)nc21 [Ex-144, 7-methoxy-2-((3-methoxy-5,6-dihydro[1,2,4]triazolo[4,3-a]pyrazin-7(8H)-yl)methyl)[1,2,4]triazolo[1,5-c]quinazolin-5-amine]
7.78	Nc1nc2c(Br)cccc2c2nc(CN3Cc4cccnc4C3)nn12 [Ex-195]
8.80	COc1cccc2c1nc(N)n1nc(CCN3CCc4oc(C)nc4C3)nc21 [Ex-27, 7-methoxy-2-(2-(2-methyl-6,7-dihydrooxazolo[4,5-c]pyridin-5(4H)-yl)ethyl)-[1,2,4]triazolo[1,5-c]quinazolin-5-amine]
8.21	COc1cccc2c1nc(N)n1nc(CN3CCc4ccc(-c5cnc(C(F)(F)F)nc5)cc4C3)nc21 [Ex-179, 7-methoxy-2-((7-(2-(trifluoromethyl)pydmidin-5-yl)-3,4-dihydroisoquinolin-2(1H)-yl)methyl)-[1,2,4]triazolo[1,5-c]quinazolin-5-amine]
7.39	CCOc1cccc2c1nc(N)n1nc(CN3CCc4cccnc4C3)nc21 [Ex-204, 2-((5,6-dihydro-1,7-naphthyridin-7(8H)-yl)methyl)-7-ethoxy-[1,2,4]triazolo[1,5-c]quinazolin-5-amine]
